Values after ≈ are worked out from the molar mass of the structure shown. Where two headings read alike, the source gives them in different places.
Columns and labels:
Acinetobacter SP CMX 669 = assay: In-vitro antimicrobial activity primary screen (agar dilution MIC); format: cell-based; conditions: Acinetobacter, SPCMX669, 24 h
Outline: (§1)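 MIC read after 20-24 hours at 35 37° C as the lowest compound level with no growth, only haze or sparse colonies relative to drug-free growth control. Plates were BHI agar carrying serial compound dilutions, replicator-inoculated at 1:100, or 1:10 for slow-growing strains.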

[1] = test system: Enterobacter aerogenes ATCC 13048; assay: as above; format: cell-based; conditions: Klebsiella aerogenes, ATCC13048; Enterobacter aerogenes ATCC 13048; BHI agar, 20-24 h; read-out: MIC
Outline: as §1

[2] = test system: Enterococcus faecium ATCC 8043; assay: as above; format: cell-based; conditions: Enterococcus faecium, ATCC8043, 24 h
Outline: as §1

Escherichia coli DC-2 = assay: as above; format: cell-based; conditions: DC2; Escherichia coli DC-2; BHI agar, 20-24 h; read-out: MIC
Outline: as §1

Escherichia coli H560 = assay: as above; format: cell-based; conditions: Escherichia coli H560; BHI agar, 20-24 h; read-out: MIC
Outline: as §1

Escherichia coli JUHL = assay: as above; format: cell-based; conditions: Escherichia coli JUHL; BHI agar, 20-24 h; read-out: MIC
Outline: as §1

Escherichia coli SS = assay: as above; format: cell-based; conditions: BHI agar, 20-24 h
Outline: as §1

[3] = test system: Klebsiella pneumoniae ATCC 8045; assay: as above; format: cell-based; conditions: Klebsiella pneumoniae ATCC 8045, BHI agar, 20-24 h
Outline: as §1

[4] = test system: Micrococcus luteus ATCC 4698; assay: as above; format: cell-based; conditions: Micrococcus luteus, ATCC4698, 24 h, BHI agar, 20-24 h
Outline: as §1

[5] = test system: Micrococcus luteus ATCC 9341; assay: as above; format: cell-based; conditions: 20-24 h
Outline: as §1

[6] = test system: Providencia stuartii CMX 640; assay: as above; format: cell-based; conditions: CMX640; Providencia stuartii CMX 640; BHI agar, 20-24 h; read-out: MIC
Outline: as §1

[7] = test system: Pseudomonas aeruginosa A5007; assay: as above; format: cell-based; conditions: Pseudomonas aeruginosa A5007; BHI agar, 20-24 h; read-out: MIC
Outline: as §1

[8] = test system: Pseudomonas aeruginosa BMH10; assay: as above; format: cell-based; conditions: BHI agar, 20-24 h, read-out: MIC
Outline: as §1

[9] = test system: Pseudomonas aeruginosa K799/61; assay: as above; format: cell-based; conditions: Pseudomonas aeruginosa K799/61, BHI agar, 20-24 h
Outline: as §1

[10] = test system: Pseudomonas aeruginosa K799/WT; assay: as above; format: cell-based; conditions: Pseudomonas aeruginosa K799/WT; BHI agar, 20-24 h; read-out: MIC
Outline: as §1

Pseudomonas cepacia 2961 = assay: as above; format: cell-based; conditions: Burkholderia cepacia, BHI agar, 20-24 h, read-out: MIC
Outline: as §1

[11] = test system: Staphylococcus aureus 45 RAR2; assay: as above; format: cell-based; conditions: Staphylococcus aureus, 45RAR2, 24 h, BHI agar, 20-24 h
Outline: as §1

Staphylococcus aureus 45 = assay: as above; format: cell-based; conditions: BHI agar, 20-24 h, read-out: MIC
Outline: as §1

[12] = test system: Staphylococcus aureus A5177; assay: as above; format: cell-based; conditions: Staphylococcus aureus A5177, BHI agar, 20-24 h
Outline: as §1

[13] = test system: Staphylococcus aureus ATCC 6538P; assay: as above; format: cell-based; conditions: Staphylococcus aureus, ATCC6538P, 24 h, BHI agar, 20-24 h
Outline: as §1

[14] = test system: Staphylococcus epidermidis 3519; assay: as above; format: cell-based; conditions: BHI agar, 20-24 h, read-out: MIC
Outline: as §1

[15] = test system: Streptococcus agalactiae CMX 508; assay: as above; format: cell-based; conditions: 20-24 h
Outline: as §1

[16] = test system: Streptococcus pyrogenes 2548 INDUC; assay: as above; format: cell-based; conditions: BHI agar, 20-24 h
Outline: as §1

[17] = test system: Streptococcus pyrogenes EES61; assay: as above; format: cell-based; conditions: BHI agar, 20-24 h
Outline: as §1

[18] = test system: Streptococcus pyogenes C-203; assay: In-vivo acute mouse protection assay; parameters: species or system Streptococcus pyogenes; female Swiss albino mice; conditions: dosed 1 and 5 h post-infection, observed 7 days
Method: (§2) An acute mouse protection test was conducted on ten mice with each of three concentrations of selected compounds of the invention. Each concentration was a four-fold dilution of the previous concentration. The initial concentration will vary with the microorganism with which the mouse is challenged.
(§3) The acute mouse protection test was conducted on female, Swiss albino mice, 18-20 grams in weight. […] To check the potency of the inoculum, a titration of the indicated test organism was carried out in control animals. The titration determines the LD50 for a particular microorganism. The treatment groups of animals were dosed orally, by gavage, or subcutaneously with the test compounds at 1 and 5 hours post-infection and observed for 7 days. The ED50 were calculated using the mortality data collected.

[19] = test system: Streptococcus pneumoniae (ATCC 6303); assay: In-vivo acute mouse protection assay; parameters: species or system Streptococcus pneumoniae; female Swiss albino mice; conditions: dosed 1 and 5 h post-infection, observed 7 days, read-out: ED50
Method: as §2, §3

[20] = Pharmacokinetic evaluation in dogs after a 10 mg/kg dose; conditions: dog, plasma; for half-life: t1/2 (biological half life); for bioavailability: % ABS (percent absorbance), from AUC (absolute bioavailability); for Cmax: Cmax (maximum concentration in blood); for Tmax: Tmax (time to achieve maximum concentration in blood)
[21] = ATCC6303, sc, 168 h, subcutaneous
[22] = iv, IV 10 mg/kg, HPLC (parent drug)
[23] = iv, IV 10 mg/kg, microbiological assay
[24] = po, oral 10 mg/kg, HPLC (parent drug)
[25] = po, oral 10 mg/kg, microbiological assay

Compound	MIC [1] [µg/mL]	MIC [2] [µg/mL]	MIC (Escherichia coli DC-2) [µg/mL]	MIC (Escherichia coli H560) [µg/mL]	MIC (Escherichia coli JUHL) [µg/mL]	MIC [4] [µg/mL]	MIC [6] [µg/mL]	MIC [7] [µg/mL]	MIC [8] [µg/mL]	MIC [10] [µg/mL]	MIC (Pseudomonas cepacia 2961) [µg/mL]	MIC [11] [µg/mL]	MIC (Staphylococcus aureus 45) [µg/mL]	MIC [13] [µg/mL]	MIC [14] [µg/mL]	ED50 ([18]; C203, 168 h, oral) [mg/kg]	ED50 ([18]; C203, sc, 168 h, subcutaneous) [mg/kg]	ED50 ([19]; ATCC6303, 168 h, oral) [mg/kg]	ED50 [19, 21] [mg/kg]	half-life [20, 22] [h]	further results
CC[C@H]1OC(=O)[C@H](C)[C@@H](O[C@H]2C[C@@](C)(OC)[C@@H](O)[C@H](C)O2)[C@H](C)[C@@H](O[C@@H]2O[C@H](C)C[C@H](N(C)C)[C@H]2O)[C@](C)(O)C[C@@H](C)[C@@H]2O[C@@]1(C)C(=O)[C@H]2C [Example 5, (9S)-9-Deoxo-11,12-dideoxy-9,12-epoxy-11-oxoerythromycin A]	> 100	0.1 (≈ 0.14 µM)	> 100	100 (≈ 140 µM)	100 (≈ 140 µM)	0.1 (≈ 0.14 µM)	> 100	> 100	100 (≈ 140 µM)	100 (≈ 140 µM)	100 (≈ 140 µM)	0.2 (≈ 0.279 µM)	0.1 (≈ 0.14 µM)	0.39 (≈ 0.545 µM)	0.2 (≈ 0.279 µM)	3.9	1.7	23.7	< 0.4	12.2	MIC (Acinetobacter SP CMX 669; Acinetobacter SP CMX 669, BHI agar, 20-24 h): 12.5 µg/mL (≈ 17.5 µM); MIC (Escherichia coli SS; Escherichia coli, 24 h): 0.2 µg/mL (≈ 0.279 µM); MIC ([3]; ATCC8045, read-out: MIC): > 100 µg/mL; MIC ([5]; Micrococcus luteus, ATCC9341, 24 h, BHI agar): < 0.05 µg/mL; MIC ([9]; Pseudomonas aeruginosa, K799/61, 24 h): 1.56 µg/mL (≈ 2.18 µM); MIC ([12]; Staphylococcus aureus, A5177, 24 h): 3.1 µg/mL (≈ 4.33 µM); MIC ([15]; Streptococcus agalactiae, CMX508, 24 h, BHI agar): 0.1 µg/mL (≈ 0.14 µM); MIC ([16]; read-out: MIC): 1.56 µg/mL (≈ 2.18 µM); MIC ([17]; Streptococcus, EES61, 24 h): < 0.05 µg/mL; half-life [20, 23]: 14.7 h; bioavailability [20, 24]: 81%; bioavailability [20, 25]: 76%; Cmax [20, 24]: 2500 ng/mL; Cmax [20, 25]: 2500 ng/mL; Tmax [20, 24]: 4 h; half-life [20, 24]: 10.2 h; half-life [20, 25]: 10.5 h
CC[C@H]1OC(=O)[C@H](C)[C@@H](O[C@H]2C[C@@](C)(OC)[C@@H](O)[C@H](C)O2)[C@H](C)[C@@H](O[C@@H]2O[C@H](C)C[C@H](N(C)C)[C@H]2O)[C@](C)(O)C[C@@H](C)[C@@H]2O[C@@]1(C)[C@@H](N)[C@H]2C [Example 19, (9S,11S)-11-Amino-9-deoxo-11,12-deoxy-9,12-epoxyerythromycin A]	100 (≈ 139 µM)	0.05 (≈ 0.0697 µM)	50 (≈ 69.7 µM)	6.2 (≈ 8.65 µM)	> 100	0.1 (≈ 0.139 µM)	> 100	> 100	50 (≈ 69.7 µM)	100 (≈ 139 µM)	> 100	0.39 (≈ 0.544 µM)	0.2 (≈ 0.279 µM)	0.2 (≈ 0.279 µM)	0.2 (≈ 0.279 µM)	28.9	2.5	< 9.4	1.1	7.5	MIC (Acinetobacter SP CMX 669): 1.56 µg/mL (≈ 2.18 µM); MIC (Escherichia coli SS; read-out: MIC): 0.78 µg/mL (≈ 1.09 µM); MIC ([3]; Klebsiella pneumoniae, ATCC8045, 24 h): 25 µg/mL (≈ 34.9 µM); MIC ([5]; ATCC9341, BHI agar, read-out: MIC): 0.01 µg/mL (≈ 0.0139 µM); MIC ([9]; read-out: MIC): 0.78 µg/mL (≈ 1.09 µM); MIC ([12]; read-out: MIC): 0.39 µg/mL (≈ 0.544 µM); MIC ([15]; CMX508, BHI agar, read-out: MIC): 0.02 µg/mL (≈ 0.0279 µM); MIC ([16]; Streptococcus, 2548INDUC, 24 h): 3.1 µg/mL (≈ 4.32 µM); MIC ([17]; read-out: MIC): < 0.005 µg/mL; half-life [20, 23]: 6.6 h; bioavailability [20, 24]: 59%; bioavailability [20, 25]: 67%; Cmax [20, 24]: 3200 ng/mL; Cmax [20, 25]: 3300 ng/mL; Tmax [20, 24]: 0.25 h; Tmax [20, 25]: 0.4 h; half-life [20, 24]: 8.1 h; half-life [20, 25]: 5.8 h

From US5288709A, “Erythromycin derivatives” (priority 1991, dated 1994)
